Molecules are shown by their SMILES.

The values below come from paper PMC10687260, “1,3-Diphenylureido hydroxamate as a promising scaffold for generation of potent antimalarial histone deacetylase inhibitors” (Scientific Reports, 2023).

In data set [1] the test system is Jurkat. Details: method as in PMID 33668008. To be noted: Fig. 1A; cited from earlier work.
The target in data set [2] is T1, HDAC8 (Homo sapiens, UniProt Q9BY41).
T1 construct: made in house
T1 sequence (Q9BY41 1-377): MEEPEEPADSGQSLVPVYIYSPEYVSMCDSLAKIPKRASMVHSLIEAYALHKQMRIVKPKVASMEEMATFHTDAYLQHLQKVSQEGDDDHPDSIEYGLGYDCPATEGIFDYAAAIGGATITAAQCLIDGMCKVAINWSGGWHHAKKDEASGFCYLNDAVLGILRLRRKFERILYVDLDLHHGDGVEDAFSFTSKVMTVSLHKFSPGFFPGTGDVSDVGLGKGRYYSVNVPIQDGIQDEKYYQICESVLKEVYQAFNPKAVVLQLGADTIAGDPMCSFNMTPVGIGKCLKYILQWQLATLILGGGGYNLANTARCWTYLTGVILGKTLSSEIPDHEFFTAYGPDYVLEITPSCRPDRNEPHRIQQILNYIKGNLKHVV
Nature of the data set: In vitro HDAC enzymatic assay, HDAC8. In kind it is biochemical. To be noted: mean ± SD. How it is done:
(§1) In vitro HDAC enzymatic assays. Recombinant human HDAC1 and HDAC6 were purchased from ENZO Life Sciences AG (Lausen, CH) whereas HDAC8 was produced as described before. In vitro testing of the inhibitors in an enzymatic assay was carried out as described in previous publications[32],[33]. For HDAC1 a fluorogenic peptide derived from p53 (Ac-RHKK(Acetyl)-AMC) was used. For HDAC6, the substrate (Abz-SRGGK(thio-TFA)FFRR-NH2) was used as described before.

In data set [3] the test system is HepG2 cells. Nature of the data set: Cytotoxicity in human HepG2 cells (WST-1). In kind it is cell-based. The following applies: Homo sapiens, HepG2; 48 h, WST-1; read-out: IC50 HepG2. Here is the method:
Cytotoxicity in human HepG2 cells.[47] […] Cytotoxic effects of compounds were assessed using the cell proliferation reagent WST-1 (Roche; CELLPRO-RO) in a 96-well plate-based screening assay. HepG2 cells were seeded at 10^4 cells/well (100 μL) in 96-well flat-bottom plates (Sarstedt) the night before the experiment to allow attachment of cells. The next day, two-fold serial dilutions of compounds were prepared in fresh medium in an extra plate, and the medium of cells was replaced by the medium containing the compound dilutions. Non-treated cells (max. proliferation), cells treated with the maximal solvent concentration (DMSO; solvent control), and medium with the maximal compound concentration (native absorbance) used as controls. […] Subsequently, 10 μL WST-1 was added to each well and plates were incubated for additional 4 h under standard conditions. WST-1 is a tetrazolium salt and is metabolised by the mitochondrial succinate-tetrazolium-reductase system of living cells and forms formazan, whose absorbance was measured at 450 nm. Absorbance at 630 nm was assessed to check for protein and precipitation background. Both measurements were acquired via the CLARIOstar (V5.20) and MARS software, manually scaled to 0–100%, and plotted with GraphPad Prism (version 9.5.2 for Windows, GraphPad Software, La Jolla California USA).

Data set [4] relates to Namalwa. Details: method as in PMID 33668008. To be noted: Fig. 1A; cited from earlier work.
Data set [5] deals with P. falciparum 3D7. In words: Antiplasmodial SYBR Green I proliferation assay, P. falciparum 3D7. In kind it is cell-based, Plasmodium falciparum. The following applies: Plasmodium falciparum, 3D7, 96 h, 96 h; values in brackets 95% confidence intervals; read-out: IC50 Pf3D7. The text has this: Antiplasmodial activity against P. falciparum 3D7 (A, C and E) and P. falciparum Dd2 (B, D, F). […] Curves were plotted using non-linear regression based on means from three independent experiments measured in triplicate. Error bars indicate standard deviation, whose values are provided in the respective table.
Plasmodium falciparum culture and antiplasmodial activity. […] Development, parasitaemia, and morphology of parasites were monitored by light microscopy of thin blood smears stained according to the Romanowsky method (Panótico Rápido staining kit; Laborclin, Pinhais, Paraná, Brazil). […] Fresh 0^+ blood was generously provided by “Hospital Novo Atibaia” (Atibaia, SP, Brazil), and approved by the ethics committee at ICB-USP. The antiplasmodial effect of all compounds was validated against P. falciparum 3D7 strain conducting SYBR Green I (Invitrogen) drug assays as previously reported[30],[46] as a modification of the original procedure. […] Parasite proliferation was measured by the DNA load via fluorescence, using 100 μL of a lysis buffer with SYBR Green I (0.02% v/v) and incubated for 1 h at room temperature in the dark. […] Focal and gain adjustment was performed using the non-treated controls (highest expected fluorescence signal). Data was acquired via the CLARIOstar (V5.20) and MARS software, manually scaled to 0–100%, and plotted using GraphPad Prism (v9.5.2 for Windows, GraphPad Software, La Jolla California USA, www.graphpad.com). Non-treated parasites, the highest solvent concentration on parasites, CQ on parasites, and the highest drug concentration in the medium were used as controls for maximal growth, solvent control, positive biological control, and native drug fluorescence, respectively.

In data set [6] the target is T2, human HDAC6 (Homo sapiens, UniProt Q9UBN7).
T2 construct: purchased ENZO Life Sciences AG (Lausen, CH)
T2 sequence (Q9UBN7 1-1215): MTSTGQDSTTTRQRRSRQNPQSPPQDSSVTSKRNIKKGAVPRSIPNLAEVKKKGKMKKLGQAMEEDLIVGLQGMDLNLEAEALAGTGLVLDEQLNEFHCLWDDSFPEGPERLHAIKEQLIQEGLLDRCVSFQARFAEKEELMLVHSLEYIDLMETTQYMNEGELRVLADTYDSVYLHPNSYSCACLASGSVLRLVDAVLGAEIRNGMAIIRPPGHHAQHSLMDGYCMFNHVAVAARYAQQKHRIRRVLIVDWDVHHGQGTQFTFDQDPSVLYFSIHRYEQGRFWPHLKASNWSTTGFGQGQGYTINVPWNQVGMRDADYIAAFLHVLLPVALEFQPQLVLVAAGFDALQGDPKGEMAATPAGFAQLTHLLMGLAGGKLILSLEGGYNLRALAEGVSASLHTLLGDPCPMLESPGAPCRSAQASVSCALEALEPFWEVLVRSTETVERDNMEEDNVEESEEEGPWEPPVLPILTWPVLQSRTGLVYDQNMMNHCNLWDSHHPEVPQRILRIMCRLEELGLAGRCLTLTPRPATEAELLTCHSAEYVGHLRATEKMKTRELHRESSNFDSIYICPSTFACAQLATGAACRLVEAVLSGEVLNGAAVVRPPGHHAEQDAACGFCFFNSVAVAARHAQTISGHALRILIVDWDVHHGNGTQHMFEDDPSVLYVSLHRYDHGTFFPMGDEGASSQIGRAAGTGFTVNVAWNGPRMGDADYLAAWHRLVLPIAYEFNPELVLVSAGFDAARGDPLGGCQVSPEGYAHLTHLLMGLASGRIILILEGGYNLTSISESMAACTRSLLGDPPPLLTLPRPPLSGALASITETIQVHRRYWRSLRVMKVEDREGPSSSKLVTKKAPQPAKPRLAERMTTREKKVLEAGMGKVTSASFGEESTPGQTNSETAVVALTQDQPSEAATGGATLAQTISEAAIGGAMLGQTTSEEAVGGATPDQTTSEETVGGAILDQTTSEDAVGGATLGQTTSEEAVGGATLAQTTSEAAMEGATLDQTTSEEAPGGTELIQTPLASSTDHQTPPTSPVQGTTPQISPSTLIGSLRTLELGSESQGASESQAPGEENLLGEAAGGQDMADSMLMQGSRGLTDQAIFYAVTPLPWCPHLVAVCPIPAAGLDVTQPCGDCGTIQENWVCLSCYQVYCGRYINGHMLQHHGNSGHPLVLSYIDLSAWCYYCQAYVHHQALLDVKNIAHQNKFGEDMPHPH
In words: In vitro HDAC enzymatic assay, HDAC6. In kind it is biochemical. The following applies: for IC50: mean ± SD; for HDAC1/6 SI: ratio HsHDAC1 IC50/HsHDAC6 IC50. Here is the method:
as §1

Data set [7] concerns the target T3, human HDAC1 (Homo sapiens, UniProt Q13547).
T3 construct: purchased ENZO Life Sciences AG (Lausen, CH)
In words: In vitro HDAC enzymatic assay, HDAC1. In kind it is biochemical. The following applies: mean ± SD. Here is the method:
as §1

Data set [8] concerns P. falciparum culture. Details: method as in PMID 33046062. The following applies: cited from earlier work.
Details of data set [9]: method as in PMID 33046062. To be noted: cited from earlier work.
Data set [10] addresses T4, CYP450 2C9 (Homo sapiens, UniProt P11712).
T4 construct: 10 μM compound was incubated with human liver microsomes and selective marker substrates; from tissue; host or cells: human liver microsomes
Nature of the data set: CYP450 inhibition in human liver microsomes, 2C9. In kind it is in vitro ADME. To be noted: 10 µM.

The target in data set [11] is T5, CYP450 2D6 (Homo sapiens, UniProt P10635).
T5 construct: 10 μM compound was incubated with human liver microsomes and selective marker substrates; from tissue; host or cells: human liver microsomes
Nature of the data set: CYP450 inhibition in human liver microsomes, 2D6. In kind it is in vitro ADME. The following applies: 10 µM.

For data set [12], the target named is T6, CYP1A2 (Homo sapiens, UniProt P05177).
T6 construct: 10 μM compound was incubated with human liver microsomes and selective marker substrates; from tissue; host or cells: human liver microsomes
T6 sequence (P05177 1-516): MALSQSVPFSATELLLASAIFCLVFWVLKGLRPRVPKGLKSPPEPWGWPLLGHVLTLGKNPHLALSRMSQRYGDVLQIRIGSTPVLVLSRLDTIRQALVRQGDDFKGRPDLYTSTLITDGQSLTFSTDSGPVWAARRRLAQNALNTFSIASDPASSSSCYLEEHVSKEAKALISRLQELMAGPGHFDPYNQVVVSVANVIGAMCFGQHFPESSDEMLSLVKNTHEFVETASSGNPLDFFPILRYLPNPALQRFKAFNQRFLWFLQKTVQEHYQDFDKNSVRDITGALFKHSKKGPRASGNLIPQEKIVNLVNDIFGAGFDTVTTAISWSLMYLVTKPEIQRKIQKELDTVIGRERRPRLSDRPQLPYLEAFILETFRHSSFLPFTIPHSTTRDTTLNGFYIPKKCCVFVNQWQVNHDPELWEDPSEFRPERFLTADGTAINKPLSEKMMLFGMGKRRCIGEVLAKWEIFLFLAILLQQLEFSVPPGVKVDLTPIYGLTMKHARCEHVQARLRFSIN
In words: CYP450 inhibition in human liver microsomes, 1A2. In kind it is in vitro ADME. To be noted: 10 µM.

Data set [13] addresses CYP450 3A4 (Homo sapiens, UniProt P08684). Nature of the data set: CYP450 inhibition in human liver microsomes, 3A4. How it is done:
DMPK evaluation. […] At 0, 5, 10, 20, 40, and 60 min time points, aliquots were removed and acetonitrile was added to quench the reactions and precipitate the proteins. […] After a 10 min incubation, the reaction was terminated and the per cent inhibition was determined.

T3 sequence (Q13547 whole entry): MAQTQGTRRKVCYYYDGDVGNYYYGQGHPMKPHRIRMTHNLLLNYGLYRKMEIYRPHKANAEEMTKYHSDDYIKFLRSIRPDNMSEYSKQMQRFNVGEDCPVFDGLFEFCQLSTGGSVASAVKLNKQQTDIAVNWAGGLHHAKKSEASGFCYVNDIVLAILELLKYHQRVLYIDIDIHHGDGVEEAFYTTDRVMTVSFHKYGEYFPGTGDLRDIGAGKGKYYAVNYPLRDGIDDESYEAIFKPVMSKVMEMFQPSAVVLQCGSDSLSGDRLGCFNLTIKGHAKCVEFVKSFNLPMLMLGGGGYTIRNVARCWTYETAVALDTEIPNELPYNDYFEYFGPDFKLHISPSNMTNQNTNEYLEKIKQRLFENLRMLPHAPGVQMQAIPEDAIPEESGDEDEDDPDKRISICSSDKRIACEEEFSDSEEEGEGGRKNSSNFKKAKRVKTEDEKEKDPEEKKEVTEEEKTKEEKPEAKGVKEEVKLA
Sequence of CYP450 3A4 (P08684 whole entry): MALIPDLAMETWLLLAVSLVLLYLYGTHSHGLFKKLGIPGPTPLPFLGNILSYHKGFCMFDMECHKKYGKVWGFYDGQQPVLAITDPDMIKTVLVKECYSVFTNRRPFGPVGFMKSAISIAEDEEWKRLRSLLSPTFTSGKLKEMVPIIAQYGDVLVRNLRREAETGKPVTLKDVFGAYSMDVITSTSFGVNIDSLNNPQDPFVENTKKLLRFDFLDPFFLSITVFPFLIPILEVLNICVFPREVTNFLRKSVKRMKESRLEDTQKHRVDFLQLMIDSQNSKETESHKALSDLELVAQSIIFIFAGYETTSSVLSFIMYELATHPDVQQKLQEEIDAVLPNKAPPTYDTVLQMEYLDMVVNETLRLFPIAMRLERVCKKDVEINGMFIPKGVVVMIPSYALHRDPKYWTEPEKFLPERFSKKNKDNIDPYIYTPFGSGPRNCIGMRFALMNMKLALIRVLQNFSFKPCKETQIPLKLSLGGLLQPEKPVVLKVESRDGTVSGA
T5 sequence (P10635 whole entry): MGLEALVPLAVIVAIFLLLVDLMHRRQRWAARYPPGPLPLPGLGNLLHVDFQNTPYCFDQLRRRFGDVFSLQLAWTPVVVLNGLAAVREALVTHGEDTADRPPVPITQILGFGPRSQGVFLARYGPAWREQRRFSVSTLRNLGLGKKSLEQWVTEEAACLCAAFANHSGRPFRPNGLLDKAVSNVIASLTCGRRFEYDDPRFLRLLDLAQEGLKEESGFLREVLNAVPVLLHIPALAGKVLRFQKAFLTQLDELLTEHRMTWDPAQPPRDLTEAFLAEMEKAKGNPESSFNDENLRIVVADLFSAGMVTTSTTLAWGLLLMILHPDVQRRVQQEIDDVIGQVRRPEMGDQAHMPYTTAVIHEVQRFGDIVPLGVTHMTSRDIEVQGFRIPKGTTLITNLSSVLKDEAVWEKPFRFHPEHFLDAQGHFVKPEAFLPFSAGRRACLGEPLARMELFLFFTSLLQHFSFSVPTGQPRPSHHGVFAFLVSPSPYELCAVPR
T4 sequence (P11712 whole entry): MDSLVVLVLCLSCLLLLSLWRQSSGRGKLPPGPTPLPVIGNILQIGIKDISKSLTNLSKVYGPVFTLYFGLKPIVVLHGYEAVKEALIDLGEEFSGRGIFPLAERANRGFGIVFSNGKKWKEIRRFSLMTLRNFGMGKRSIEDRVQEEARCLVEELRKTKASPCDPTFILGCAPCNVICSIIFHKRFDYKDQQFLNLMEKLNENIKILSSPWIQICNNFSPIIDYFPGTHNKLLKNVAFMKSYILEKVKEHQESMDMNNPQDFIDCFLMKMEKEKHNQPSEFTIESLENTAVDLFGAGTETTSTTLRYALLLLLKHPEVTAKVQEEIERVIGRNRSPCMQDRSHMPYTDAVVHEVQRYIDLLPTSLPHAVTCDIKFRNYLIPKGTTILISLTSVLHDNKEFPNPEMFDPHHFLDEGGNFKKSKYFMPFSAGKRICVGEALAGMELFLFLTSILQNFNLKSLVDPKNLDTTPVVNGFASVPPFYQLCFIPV

`O=C(/C=C/c1ccc(NC(=O)Nc2ccccc2)cc1)NO` [Compound 6a, (E)-N-hydroxy-3-(4-(3-phenylureido)phenyl)acrylamide] had a melting point of 202 to 204 °C. The IC50 in [1] is 160 nM. The IC50 in data set [2] is 95.1 ± 4.6 nM. Besides, the IC50 in data set [3] was 22900 nM. The concentration for half-maximal inhibition (IC50) in data set [4] is 300 nM. The IC50 in data set [5] was 1720 nM. In data set [6], the IC50 amounted to 12.4 ± 0.7 nM and the “HDAC1/6 SI” value was determined as 109. In [7], this compound returned an IC50 of 1350 ± 64.2 nM.

For the compound `O=C(CCc1ccc(NC(=O)Nc2ccccc2)cc1)NO` [Compound 7a, N-hydroxy-3-(4-(3-phenylureido)phenyl)propanamide], the melting point was 304 °C (dec.). The IC50 in [1] was 1590 nM. This compound also displayed an IC50 in data set [2] of 462 ± 27.6 nM. Besides, the half-inhibitory concentration (IC50) in data set [3] is more than 50000 nM. The IC50 in data set [4] was 780 nM. In addition, the IC50 in data set [5] was 4570 nM. In [6], the half-maximal inhibitory concentration (IC50) was 152 ± 11.6 nM and the “HDAC1/6 SI” value was 32. Further, half-maximal inhibition in data set [7] (IC50) required 4890 ± 210 nM.

For the compound `Cl.O=C(NO)c1ccc(Cn2cc(-c3ccc(CN4CCCC4)cc3)nn2)cc1` [FNDR-20123], in data set [8], the “IC50 against P. falciparum culture” value was “low nanomolar range”. Besides, the “Half-life t1/2” value in data set [9] is 2 to 9.21 h.

Regarding `Nc1ccc(S(=O)(=O)Nc2ccnn2-c2ccccc2)cc1` [Sulfaphenazole, reference compound], in [10], the “CYP450% inhibition @ 10 µM 2C9” value is reported as 94%. Moreover, the “CYP450% inhibition @ 10 µM 2D6” value in data set [11] was “* (Inhibition < 10%)”. The “CYP450% inhibition @ 10 µM 1A2” value in data set [12] is on record as “* (Inhibition < 10%)”. In data set [13], the “CYP450% inhibition @ 10 µM 3A4” value is recorded as “* (Inhibition < 10%)”.
